According to ChEMBL document CHEMBL3525964 (Drug Metab Dispos, 2012):

Tests used:
Cytochrome P450 3A4 [1] = biological target: T1, Cytochrome P450 3A4 (Homo sapiens, UniProt P08684); test: Drug metabolism in human liver microsomes assessed as CYP3A4-mediated drug depletion in presence of CYP2D6 inhibitor quinidine by LC-MS/MS method; type: ADME
Plasma [2] = test: Drug level in human plasma treated with [14C}LY2452473 at 15 mg, po after 24 hrs administered as single dose by HPLC analysis; type: ADME, organism-based; details: in vivo
[3] = Drug level in feces of human treated with [14C}LY2452473 at 15 mg, po administered as single dose by LC-MS/MS method; type: ADME, organism-based; details: in vivo
Homo sapiens [4] = test: Cmax in human at 15 mg, po administered as single dose by liquid scintillation counting method; type: ADME, organism-based; set-up: dose 15 mg, route oral; details: in vivo
Cytochrome P450 3A4 [5] = biological target: T1, Cytochrome P450 3A4; test: Fraction metabolized assessed as human recombinant CYP3A4-mediated drug depletion by LC-MS/MS method relative to total normalized intrinsic clearance; type: ADME; details: recombinant enzyme
[6] = Drug level in urine of human treated with [14C}LY2452473 at 15 mg, po administered as single dose by LC-MS/MS method; type: ADME, organism-based; details: in vivo
Plasma [7] = test: Drug level in human plasma treated with [14C}LY2452473 at 15 mg, po after 2 hrs administered as single dose by HPLC analysis; type: ADME, organism-based; details: in vivo
Cytochrome P450 3A5 = Cytochrome P450 3A5 (Homo sapiens, UniProt P20815); test: Drug metabolism assessed as human recombinant CYP3A5-mediated drug depletion by LC-MS/MS method; type: ADME; details: recombinant enzyme
Sequence of Cytochrome P450 3A5 (P20815 whole entry): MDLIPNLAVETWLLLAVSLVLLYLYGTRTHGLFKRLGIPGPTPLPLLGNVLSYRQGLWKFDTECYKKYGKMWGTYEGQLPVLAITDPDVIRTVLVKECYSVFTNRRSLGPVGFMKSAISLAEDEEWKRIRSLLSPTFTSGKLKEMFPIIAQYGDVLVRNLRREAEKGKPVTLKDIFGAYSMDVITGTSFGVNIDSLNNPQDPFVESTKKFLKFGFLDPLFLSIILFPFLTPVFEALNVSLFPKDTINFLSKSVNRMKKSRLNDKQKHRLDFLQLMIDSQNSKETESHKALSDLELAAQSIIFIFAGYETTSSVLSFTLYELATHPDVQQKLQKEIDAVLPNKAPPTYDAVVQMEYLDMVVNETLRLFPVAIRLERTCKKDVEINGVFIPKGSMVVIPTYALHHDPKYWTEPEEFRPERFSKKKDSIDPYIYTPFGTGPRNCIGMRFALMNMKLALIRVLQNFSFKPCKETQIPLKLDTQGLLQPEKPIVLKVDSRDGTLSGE

Plasma [8] = test: Drug level in human plasma treated with [14C}LY2452473 at 15 mg, po after 48 hrs administered as single dose by HPLC analysis; type: ADME, organism-based; details: in vivo
Homo sapiens [9] = test: Terminal half life in human at 15 mg, po administered as single dose by liquid scintillation counting method; type: ADME, organism-based; details: in vivo
Homo sapiens [10] = test: Apparent total body clearance in human at 15 mg, po administered as single dose by liquid scintillation counting method; type: ADME, organism-based; details: in vivo
Cytochrome P450 2C9 = Cytochrome P450 2C9 (Homo sapiens, UniProt P11712); test: Drug metabolism in human liver microsomes assessed as CYP3A4-mediated drug depletion in presence of CYP2C9 inhibitor sulfaphenazole by LC-MS/MS method; type: ADME
Sequence of Cytochrome P450 2C9 (P11712 whole entry): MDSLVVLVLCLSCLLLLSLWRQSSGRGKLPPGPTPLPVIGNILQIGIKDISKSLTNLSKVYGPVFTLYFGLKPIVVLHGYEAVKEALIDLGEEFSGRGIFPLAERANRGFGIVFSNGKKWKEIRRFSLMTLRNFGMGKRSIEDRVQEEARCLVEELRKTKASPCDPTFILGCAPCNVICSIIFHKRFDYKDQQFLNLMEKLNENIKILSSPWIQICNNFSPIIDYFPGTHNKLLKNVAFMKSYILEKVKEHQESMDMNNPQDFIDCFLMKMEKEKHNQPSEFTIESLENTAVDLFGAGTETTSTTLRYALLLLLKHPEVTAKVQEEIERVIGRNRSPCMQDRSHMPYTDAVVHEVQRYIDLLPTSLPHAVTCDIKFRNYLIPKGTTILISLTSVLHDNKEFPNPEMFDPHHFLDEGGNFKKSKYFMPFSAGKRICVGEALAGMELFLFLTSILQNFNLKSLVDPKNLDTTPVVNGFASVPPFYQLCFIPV

Plasma [11] = test: Drug level in plasma of human treated with [14C}LY2452473 at 15 mg, po administered as single dose by LC-MS/MS method; type: ADME, organism-based; details: in vivo
Cytochrome P450 2D6 = Cytochrome P450 2D6 (Homo sapiens, UniProt P10635); test: Normalized intrinsic clearance assessed as human recombinant CYP2D6-mediated drug depletion per pmol protein by LC-MS/MS method; type: ADME; details: recombinant enzyme
Sequence of Cytochrome P450 2D6 (P10635 whole entry): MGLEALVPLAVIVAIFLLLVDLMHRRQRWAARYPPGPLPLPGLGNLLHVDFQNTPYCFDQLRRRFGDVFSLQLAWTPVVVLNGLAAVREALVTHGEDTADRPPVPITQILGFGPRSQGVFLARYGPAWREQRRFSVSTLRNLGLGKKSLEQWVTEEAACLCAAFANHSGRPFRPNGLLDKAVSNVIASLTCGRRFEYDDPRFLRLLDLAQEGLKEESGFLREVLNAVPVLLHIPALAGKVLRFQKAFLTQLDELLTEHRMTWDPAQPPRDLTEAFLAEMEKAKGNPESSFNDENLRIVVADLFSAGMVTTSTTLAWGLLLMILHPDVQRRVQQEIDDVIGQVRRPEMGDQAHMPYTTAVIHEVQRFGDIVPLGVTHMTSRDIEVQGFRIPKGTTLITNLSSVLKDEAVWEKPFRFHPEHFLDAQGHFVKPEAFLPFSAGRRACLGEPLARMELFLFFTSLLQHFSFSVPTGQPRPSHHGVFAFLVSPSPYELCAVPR

Cytochrome P450 1A2 = biological target: T2, Cytochrome P450 1A2 (Homo sapiens, UniProt P05177); test: Drug metabolism assessed as human recombinant CYP1A2-mediated drug depletion by LC-MS/MS method; type: ADME; details: recombinant enzyme
T2 sequence (P05177 whole entry): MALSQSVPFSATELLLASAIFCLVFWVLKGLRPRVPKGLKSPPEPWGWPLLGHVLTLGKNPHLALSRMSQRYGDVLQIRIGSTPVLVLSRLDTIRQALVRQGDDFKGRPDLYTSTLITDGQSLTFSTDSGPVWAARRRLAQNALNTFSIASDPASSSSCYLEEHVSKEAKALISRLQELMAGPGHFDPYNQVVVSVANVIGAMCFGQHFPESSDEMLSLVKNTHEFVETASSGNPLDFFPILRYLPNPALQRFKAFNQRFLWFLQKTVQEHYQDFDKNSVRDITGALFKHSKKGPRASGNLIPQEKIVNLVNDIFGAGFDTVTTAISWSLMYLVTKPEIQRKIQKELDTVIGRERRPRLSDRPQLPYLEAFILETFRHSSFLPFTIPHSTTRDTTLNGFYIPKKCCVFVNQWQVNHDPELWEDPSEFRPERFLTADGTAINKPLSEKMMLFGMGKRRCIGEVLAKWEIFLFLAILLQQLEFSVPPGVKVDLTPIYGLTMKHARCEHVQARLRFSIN

Cytochrome P450 2C19 = Cytochrome P450 2C19 (Homo sapiens, UniProt P33261); test: Normalized intrinsic clearance assessed as human recombinant CYP2C19-mediated drug depletion per pmol protein by LC-MS/MS method; type: ADME; details: recombinant enzyme
Sequence of Cytochrome P450 2C19 (P33261 whole entry): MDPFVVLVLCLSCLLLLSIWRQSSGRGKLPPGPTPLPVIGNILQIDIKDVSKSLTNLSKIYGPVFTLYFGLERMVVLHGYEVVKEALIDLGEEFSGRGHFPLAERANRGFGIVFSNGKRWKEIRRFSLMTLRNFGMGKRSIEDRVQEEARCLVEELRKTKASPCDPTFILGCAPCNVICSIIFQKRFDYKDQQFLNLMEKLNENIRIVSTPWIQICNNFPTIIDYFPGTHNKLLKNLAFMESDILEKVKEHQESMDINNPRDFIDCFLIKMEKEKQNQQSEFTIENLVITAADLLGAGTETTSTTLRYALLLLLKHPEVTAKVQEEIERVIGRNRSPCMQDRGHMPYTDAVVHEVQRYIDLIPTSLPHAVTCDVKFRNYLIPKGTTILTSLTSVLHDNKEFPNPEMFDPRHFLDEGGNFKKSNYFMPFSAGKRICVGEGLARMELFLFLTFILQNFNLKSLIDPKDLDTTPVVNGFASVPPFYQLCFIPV

Cytochrome P450 2J2 = biological target: T3, Cytochrome P450 2J2 (Homo sapiens, UniProt P51589); test: Fraction metabolized assessed as human recombinant CYP2J2-mediated drug depletion by LC-MS/MS method relative to total normalized intrinsic clearance; type: ADME; details: recombinant enzyme
T3 sequence (P51589 whole entry): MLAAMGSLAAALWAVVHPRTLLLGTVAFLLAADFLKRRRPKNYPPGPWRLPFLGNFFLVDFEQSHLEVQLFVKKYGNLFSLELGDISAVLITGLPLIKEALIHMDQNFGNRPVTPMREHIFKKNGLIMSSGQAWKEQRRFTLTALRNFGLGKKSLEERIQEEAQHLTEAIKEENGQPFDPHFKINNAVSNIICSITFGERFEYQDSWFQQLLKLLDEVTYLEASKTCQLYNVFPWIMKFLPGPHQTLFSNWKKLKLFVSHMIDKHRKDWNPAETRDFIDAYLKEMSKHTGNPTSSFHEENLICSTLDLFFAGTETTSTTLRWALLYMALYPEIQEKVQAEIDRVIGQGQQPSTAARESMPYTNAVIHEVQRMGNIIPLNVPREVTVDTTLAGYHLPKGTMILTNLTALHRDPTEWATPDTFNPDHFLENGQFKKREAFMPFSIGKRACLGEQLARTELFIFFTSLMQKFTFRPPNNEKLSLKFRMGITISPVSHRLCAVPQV

Homo sapiens [12] = test: Tmax in human at 15 mg, po administered as single dose by liquid scintillation counting method; type: ADME, organism-based; details: in vivo
Cytochrome P450 2E1 = Cytochrome P450 2E1 (Homo sapiens, UniProt P05181); test: Drug metabolism assessed as human recombinant CYP2E1-mediated drug depletion by LC-MS/MS method; type: ADME; details: recombinant enzyme
Sequence of Cytochrome P450 2E1 (P05181 whole entry): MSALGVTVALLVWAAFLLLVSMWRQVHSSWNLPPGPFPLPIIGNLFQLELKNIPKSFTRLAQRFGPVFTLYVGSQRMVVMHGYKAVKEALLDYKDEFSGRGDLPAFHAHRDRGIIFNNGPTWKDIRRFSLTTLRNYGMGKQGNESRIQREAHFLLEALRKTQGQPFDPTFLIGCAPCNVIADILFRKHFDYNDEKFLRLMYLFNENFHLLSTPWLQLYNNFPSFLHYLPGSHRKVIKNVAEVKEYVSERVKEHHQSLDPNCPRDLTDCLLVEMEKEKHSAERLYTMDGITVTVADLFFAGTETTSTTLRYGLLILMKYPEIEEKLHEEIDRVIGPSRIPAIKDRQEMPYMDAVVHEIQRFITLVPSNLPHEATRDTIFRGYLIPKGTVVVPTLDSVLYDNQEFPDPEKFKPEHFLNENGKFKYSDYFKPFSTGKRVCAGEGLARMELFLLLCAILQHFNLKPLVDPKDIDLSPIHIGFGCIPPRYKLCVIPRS

Homo sapiens [13] = test: AUC (0 to last) in human at 15 mg, po administered as single dose by liquid scintillation counting method; type: ADME, organism-based, Plasma; set-up: dose 15 mg, time 0 - last, route oral; details: in vivo

T1 sequence (P08684 whole entry): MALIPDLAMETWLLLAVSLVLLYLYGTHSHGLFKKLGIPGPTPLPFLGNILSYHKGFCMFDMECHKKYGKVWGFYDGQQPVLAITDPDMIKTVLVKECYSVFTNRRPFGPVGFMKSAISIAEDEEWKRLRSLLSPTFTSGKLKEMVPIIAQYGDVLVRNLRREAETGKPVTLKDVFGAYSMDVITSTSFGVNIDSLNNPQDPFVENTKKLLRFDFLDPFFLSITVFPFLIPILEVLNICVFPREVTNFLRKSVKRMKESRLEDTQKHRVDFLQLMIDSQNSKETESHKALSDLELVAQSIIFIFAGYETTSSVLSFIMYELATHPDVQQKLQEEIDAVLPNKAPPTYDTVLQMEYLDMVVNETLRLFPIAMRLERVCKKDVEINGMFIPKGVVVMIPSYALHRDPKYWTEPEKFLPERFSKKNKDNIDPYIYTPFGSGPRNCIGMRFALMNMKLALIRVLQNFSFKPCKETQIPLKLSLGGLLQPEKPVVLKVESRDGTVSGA

Compound: CC(C)OC(=O)N[C@H]1Cc2c(n(Cc3ccccn3)c3ccc(C#N)cc23)C1 [LY2452473]
- Drug metabolism (Cytochrome P450 3A4 [1]): metabolite_not_detected
- Drug uptake (Plasma [2]): 28.81%
- Drug metabolism [3]: metabolite_detected
- Cmax (Homo sapiens [4]): 91.5 ng/mL
- Fm (Cytochrome P450 3A4 [5]): 68%
- Drug metabolism [6]: metabolite_detected
- Drug uptake (Plasma [7]): 72.93%
- Drug metabolism (Cytochrome P450 3A5): metabolite_not_detected
- Drug uptake (Plasma [8]): 27.67%
- beta t1/2 (Homo sapiens [9]): 27 h
- CLt/F (Homo sapiens [10]): 11 L/h
- Drug metabolism (Cytochrome P450 2C9): metabolite_not_detected
- Drug metabolism (Plasma [11]): metabolite_detected
- CL (Cytochrome P450 2D6): 3 µL/min
- Drug metabolism (Cytochrome P450 1A2): metabolite_not_detected
- CL (Cytochrome P450 2C19): 5.7 µL/min
- Fm (Cytochrome P450 2J2): 15%
- Tmax (Homo sapiens [12]): 2 h
- Drug metabolism (Cytochrome P450 2E1): metabolite_not_detected
- AUClast (Homo sapiens [13]): 1310 ng·h/mL
